Measured values as given in patent US10034886B2, “GLP-1 receptor modulators” (Celgene International II SÀRL, priority 2014, dated 2018).

Biological target: T1, GLP-1R (Homo sapiens, UniProt P43220)
T1 construct: host or cells: GLP-1R CRE-bla CHO-K1 cells
Assay: EC20 GLP-1(9-36) PAM cAMP assay: dose response of compound in the presence of fixed concentration of GLP-1(9-36)
Format: cell-based
Details: GLP-1R CRE-bla CHO-K1 cells, compound dose response with fixed concentration of GLP-1(9-36), read-out: EC20 GLP-1(9-36) PAM EC50
Procedure: EC20 GLP-1(9-36) PAM cAMP Assay: Dose Response of Compound in the Presence of Fixed Concentration of GLP-1 (9-36).
GLP-1R CRE-bla CHO-K1 cells cultured in growth medium (DMEM-High glucose, 10% dialyzed FBS, 0.1 mM NEAA, 25 mM Hepes, 100 U/mL penicillin/100 μg/mL streptomycin, 5 μg/mL Blasticidin, 600 μg/mL Hygromycin) were trypsinized and plated in suspension into 384 well white flat bottom plates at 5000 cells/well in 12 μL assay buffer (Hanks Balanced Salt solution, 10 mM hepes, 0.1% BSA, pH 7.4). A 5× compound dose response curve (12-point) was generated in assay buffer containing 1.5 mM IBMX, 4% DMSO. GLP-1(9-36) was diluted to 4.2 μM in assay buffer containing 1.5 mM IMBX and 4% DMSO. The 5× compound dose response was added (3 μL), followed by 0.5 μL of GLP-1(9-36) and cells were incubated for 30 min at 37° C. Direct detection of cAMP was carried out using DiscoveRx HitHunter cAMP kit according to manufacturer's instructions and luminescence was read using a SpectraMax M5 plate reader. Luminescence was converted to total cAMP using a cAMP standard curve and data was analyzed by non-linear regression to determine the EC50 and Emax.
GLP-1(7-36): […]-NH2 (SEQ ID NO: 2). GLP-1(9-36): […]-NH2 (SEQ ID NO: 3). GLP-1(7-36) was purchased from GenScript. GLP-1(9-36) was purchased from Biopeptide Co., Inc.
The EC20GLP-1(9-36) PAM Activity range is denoted as follows: + denotes activity <0.8 μM, ++ denotes activity between 0.8 and 2.5 μM, +++ denotes activity between 2.5 and 5 μM, and ++++ denotes activity 5 to 10 μM.

T1 sequence (P43220 24-463): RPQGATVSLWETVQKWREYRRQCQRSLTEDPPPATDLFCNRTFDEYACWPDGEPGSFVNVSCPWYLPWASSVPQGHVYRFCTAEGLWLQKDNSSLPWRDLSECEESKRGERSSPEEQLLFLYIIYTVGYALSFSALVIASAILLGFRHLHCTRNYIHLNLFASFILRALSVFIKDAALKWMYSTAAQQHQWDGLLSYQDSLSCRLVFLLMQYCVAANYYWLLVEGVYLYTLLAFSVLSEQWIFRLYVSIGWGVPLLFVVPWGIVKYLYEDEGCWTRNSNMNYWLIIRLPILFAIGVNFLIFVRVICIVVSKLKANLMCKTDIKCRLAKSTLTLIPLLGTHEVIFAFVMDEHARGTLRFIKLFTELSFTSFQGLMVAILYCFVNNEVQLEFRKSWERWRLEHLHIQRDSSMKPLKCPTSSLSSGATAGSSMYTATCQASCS
T1 sequence (P01275 100-127 partner limits assumed): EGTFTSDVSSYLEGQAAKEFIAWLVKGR

Row | EC50 [µM] | Structure (SMILES)
1 | < 0.8 | CC(C)(C)c1ccc(C(=O)N[C@@H](Cc2ccc(-c3ncc(-c4ccc(-c5ccc(C(F)(F)F)cc5)cc4)cn3)cc2)C(=O)O)s1 [Compound 1355, (S)-2-(5-(tert-butyl)thiophene-2-carboxamido)-3-(4-(5-(4′-(trifluoromethyl)-[1,1′-biphenyl]-4-yl)pyrimidin-2-yl)phenyl)propanoic acid]
2 | < 0.8 | CC(C)CCCOc1ccc(-c2cnc(-c3ccc(C[C@H](NC(=O)c4ccc(S(C)(=O)=O)s4)C(=O)N4CC(C(=O)O)C4)cc3)nc2)cc1 [Compound 1246]
3 | 0.8 to 2.5 | CC(C)(C)c1ccc(C(=O)NC(Cc2ccc(-c3ncc(N4CCC(c5ccc(Br)cc5)CC4)cn3)cc2)C(=O)N2CC(C(=O)O)C2)s1 (stereo not drawn) [Compound 1487]
4 | < 0.8 | CN(CCC(C)(O)c1cccc(OC(F)(F)F)c1)c1cnc(-c2ccc(CC(NC(=O)c3ccc(C(C)(C)C)s3)C(=O)N3CC(C(=O)O)C3)cc2)nc1 (stereo not drawn) [Compound 1485]
5 | 5 to 10 | CCc1ccc(C(=O)N[C@@H](Cc2ccc(-c3ncc(-c4ccc([C@H]5CC[C@H](CC)CC5)cc4)cn3)cc2)C(=O)O)cn1 [Compound 1390]
6 | < 0.8 | CC(C)(C)c1ccc(C(=O)N[C@@H](Cc2ccc(-c3ncc(-c4ccc(-c5ccc(C6CCCC6)cc5)cc4F)cn3)cc2)C(=O)N2CC(C(=O)O)C2)s1 [Compound 1211]
7 | 0.8 to 2.5 | CCC[C@H]1CC[C@H](C2CCN(c3cnc(-c4ccc(C[C@H](NC(=O)c5ccc(C(C)(C)C)s5)C(=O)N[C@H](C)C(N)=O)cc4)nc3)CC2)CC1 [Compound 1441]

Same assay, conditions: dose response of compound in presence of fixed concentration of GLP-1(9-36), GLP-1R CRE-bla CHO-K1 cells, read-out: EC20 GLP-1(9-36) PAM EC50

Row | Structure (SMILES) | EC50 [µM]
8 | CC(C)(C)CCCOc1ccc(-c2cnc(-c3ccc(C[C@H](NC(=O)c4ccc(C(C)(C)C)s4)C(=O)NC(C(=O)O)C(O)c4ccccc4)cc3)nc2)cc1 (stereo partly drawn) [Compound 937] | 0.8 to 2.5
9 | CCCCCCCOc1ccc(-c2cnc(-c3ccc(C[C@H](NC(=O)c4ccc(C(C)(C)C)cc4)C(=O)NCCC(=O)O)cc3)nc2)cc1CC [Compound 703] | < 0.8
10 | CCCCCCCOc1ccc(-c2cnc(-c3ccc(C[C@H](NC(=O)c4ccc(C(C)(C)C)s4)C(=O)N4CC(N(C)C)C4)cc3)nc2)cc1 [Compound 976] | 2.5 to 5
11 | CCCCCCc1nnc(-c2cnc(-c3ccc(C[C@H](NC(=O)c4ccc(C(C)(C)C)cc4)C(=O)O)cc3)nc2)s1 [Compound 397, (S)-2-(4-(tert-butyl)benzamido)-3-(4-(5-(5-hexyl-1,3,4-thiadiazol-2-yl)pyrimidin-2-yl)phenyl)propanoic acid] | 2.5 to 5
12 | CCCCOCCOc1ccc(-c2cnc(-c3ccc(C[C@H](NC(=O)c4ccc(C(C)(C)C)cc4)C(=O)NCCC(=O)O)cc3)nc2)cc1 [Compound 457] | 2.5 to 5
13 | Cc1ccc(-c2ccc(-c3cnc(-c4ccc(C[C@H](NC(=O)c5ccc(C(C)(C)C)cc5)C(=O)N[C@H](C)C(=O)O)cc4)nc3)cc2)cc1 [Compound 727] | 2.5 to 5
14 | CCCCCCCOc1ccc2nc(-c3ccc(C[C@H](NC(=O)c4ccc(C(C)(C)C)cc4)C(=O)N[C@H](C)C(=O)O)cc3)ccc2c1 [Compound 806] | 0.8 to 2.5
15 | CCCCCCCOc1ccc(-c2cnc(-c3ccc(C[C@H](NC(=O)c4ccc(C(C)(C)C)s4)C(=O)N4CC[C@H](O)C4)cc3)nc2)cc1 [Compound 977] | 5 to 10
16 | CCCCCCCOc1ccc(-c2cnc(-c3ccc(C[C@H](NC(=O)c4ccc(C(C)(C)C)s4)C(=O)N[C@@H](CC(=O)O)C(=O)N(C)CCN(C)C)cc3)nc2)cc1 [Compound 531] | 0.8 to 2.5
17 | CCCCCCCOc1ccc(-c2cnc(-c3ccc(C[C@H](NC(=O)c4ccc(OCC)cc4)C(=O)N4CC[C@H](C(=O)O)C4)cc3)nc2)cc1 [Compound 848] | 2.5 to 5
18 | CCCCCCCOc1ccc(-c2cnc(-c3ccc(C[C@H](NC(=O)c4ccc(OC(C)C)cc4)C(=O)N4CC[C@H](C(=O)O)C4)cc3)nc2)cc1 [Compound 849] | 2.5 to 5
19 | CCCCCCCOc1ccc(-c2cnc(-c3ccc(C[C@H](NC(=O)c4ccc(C(C)(C)C)cc4)C(=O)NCC(CC4CCOC4)C(=O)O)cc3)nc2)cc1 (stereo partly drawn) [Compound 560] | 0.8 to 2.5
20 | CCCCCCCOc1ccc(-c2cnc(-c3ccc(C[C@H](NC(=O)c4ccc(C(C)(C)C)s4)C(=O)NCC4CC4)cc3)nc2)cc1 [Compound 968] | 5 to 10
21 | CCCCCCCOc1ccc(-c2cnc(-c3ccc(C[C@H](NC(=O)c4ccc(C(C)(C)C)cc4)C(=O)NC(C)(C)C(=O)O)cc3)nc2)cc1 [Compound 409] | 0.8 to 2.5
22 | CCCCCCCOc1ccc(-c2cnc(-c3ccc(C[C@H](NC(=O)c4ccc(C(C)(C)C)s4)C(=O)N[C@@H](Cc4cccnc4)C(=O)O)cc3)nc2)cc1 [Compound 617] | < 0.8
23 | CCCCCCCOc1ccc(-c2cnc(-c3ccc(C[C@H](NC(=O)c4ccc(C(C)(C)C)cc4)C(=O)N[C@@H](CC4CCCNC4)C(=O)O)cc3)nc2)cc1 (stereo partly drawn) [Compound 577] | 2.5 to 5
24 | CCCCCCCOc1ccc(-c2cnc(-c3ccc(C[C@H](NC(=O)c4ccc(C(C)(C)C)s4)C(=O)NC(C(=O)O)C(O)C4CC4)cc3)nc2)cc1 (stereo partly drawn) [Compound 908] | 0.8 to 2.5
25 | CC(C)(C)c1ccc(C(=O)N[C@@H](Cc2ccc(-c3ncc(-c4ccc(OC5CCCCC5)cc4)cn3)cc2)C(=O)N2CC(C(=O)O)C2)s1 [Compound 921] | 5 to 10
26 | CCCCCCCOc1ccc(-c2cnc(-c3ccc(C[C@H](NC(=O)c4ccc(C(C)(C)C)cc4)C(=O)N[C@H](CCCNC(=O)OCc4ccccc4)C(=O)O)cc3)nc2)cc1 [Compound 575] | 2.5 to 5
27 | CCCCCCCOc1ccc(-c2cnc(-c3ccc(C[C@H](NC(=O)c4ccc(C(C)(C)C)s4)C(=O)N[C@@H](C(=O)O)[C@H](C)CC)cc3)nc2)cc1 [Compound 658] | < 0.8
28 | CCCCCCCOc1ccc(-c2cnc(-c3ccc(C[C@H](NC(=O)c4ccc(OCC(C)C)cc4)C(=O)N[C@H](C)C(=O)O)cc3)nc2)cc1 [Compound 829] | 5 to 10
29 | CCCCCCCOc1ccc2nc(-c3ccc(C[C@H](NC(=O)c4ccc(C(C)(C)C)cc4)C(=O)O)cc3)ncc2c1 [Compound 673, (S)-2-(4-(tert-butyl)benzamido)-3-(4-(6-(heptyloxy)quinazolin-2-yl)phenyl)propanoic acid] | 5 to 10
30 | CCCCCCCOc1ccc(-c2cnc(-c3ccc(C[C@@H](NC(=O)c4ccc(C(C)(C)C)cc4)C(=O)N[C@@H](C)C(=O)O)cc3)nc2)cc1 [Compound 436] | < 0.8
31 | CCCCCCCOc1ccc(-c2cnc(-c3ccc(C[C@H](NC(=O)c4ccc(C(C)(C)C)cc4)C(=O)N[C@@H](CC(=O)OCc4ccccc4)C(=O)O)cc3)nc2)cc1 [Compound 502, (S)-4-(benzyloxy)-2-((S)-2-(4-(tert-butyl)benzamido)-3-(4-(5-(4-(heptyloxy)phenyl)pyrimidin-2-yl)phenyl)propanamido)-4-oxobutanoic acid] | < 0.8
32 | CCCCCCCOc1ccc(-c2cnc(-c3ccc(C[C@H](NC(=O)c4ccc(C(C)(C)C)cc4)C(=O)NCCC(=O)O)cc3)nc2)cc1OC [Compound 699] | 5 to 10
33 | CCCCCCCOc1ccc(-c2cnc(-c3ccc(CC(NC(=O)c4ccc(C(C)(C)C)s4)C(=O)NCCCC(=O)O)cc3)nc2)cc1 (stereo not drawn) [Compound 429] | 2.5 to 5

The next lines start with the values.

Row | EC50 [µM] | Structure (SMILES)
34 | 0.8 to 2.5 | Cc1cc(-c2ccccc2)ccc1-c1cnc(-c2ccc(C[C@H](NC(=O)c3ccc(C(C)(C)C)s3)C(=O)N[C@H](C)C(=O)O)cc2)nc1 [Compound 1131]
35 | < 0.8 | CC[C@H]1CC[C@H](c2ccc(-c3cnc(-c4ccc(C[C@H](NC(=O)c5cnc(C(C)(C)C)nc5)C(=O)N5CC(C(=O)O)C5)cc4)nc3)cc2)CC1 [Compound 1164]
36 | 2.5 to 5 | CCCCCCCOc1ccc(-c2cnc(-c3ccc(C[C@H](NC(=O)c4ccc(C(C)(C)C)s4)C(=O)NC4CNC4)cc3)nc2)cc1 [Compound 985]
37 | 5 to 10 | Cc1cc(C)cc(-c2cnc(-c3ccc(C[C@H](NC(=O)c4ccc(C(C)(C)C)s4)C(=O)N[C@H](C)C(=O)O)cc3)nc2)c1 [Compound 1042]
38 | 5 to 10 | COc1ccc(-c2cnc(-c3ccc(C[C@H](NC(=O)c4ccc(C(C)(C)C)s4)C(=O)N[C@H](C)C(=O)O)cc3)nc2)c(F)c1OCC(C)C [Compound 1003]
39 | 2.5 to 5 | COc1ccc(-c2cnc(-c3ccc(C[C@H](NC(=O)c4ccc(C(C)(C)C)s4)C(=O)N[C@H](C)C(=O)O)cc3)nc2)cc1C12CC3CC(CC(C3)C1)C2 [Compound 1054]
40 | 0.8 to 2.5 | CCCCCCCOc1ccc(-c2cnc(-c3ccc(C[C@H](NC(=O)c4ccc(C(C)C)cc4)C(=O)N4CC(C(=O)O)C4)cc3)nc2)cc1 [Compound 1113]
41 | < 0.8 | C[C@@H](NC(=O)[C@H](Cc1ccc(-c2ncc(-c3ccc(C4=CCC(F)(F)CC4)cc3)cn2)cc1)NC(=O)c1ccc(C(C)(C)C)s1)C(=O)O [Compound 1151]
42 | 2.5 to 5 | COc1cc(-c2cnc(-c3ccc(C[C@H](NC(=O)c4ccc(C(C)(C)C)s4)C(=O)N[C@H](C)C(=O)O)cc3)nc2)ccc1OCc1ccccc1 [Compound 999]
